Source: ChEMBL document CHEMBL5375995, “Discovery and Mechanistic Study of Novel Mycobacterium tuberculosis ClpP1P2 Inhibitors” (J Med Chem, 2023)
Activity calls are given as the source filed them. The rule behind the calls is not given here.

Tests used:
[1] = Selectivity index, ratio of IC50 for full-length Staphylococcus aureus ClpP complex/Escherichia coli ClpX delta N mutant (62 to 425 residues) expressed in Escherichia coli BL21(DE3) using FITC-casein as substrate to IC50 for N-terminal His6-SUMO-tagged Mtb ClpP1 (7 to 200 residues)/ClpP2 (13 to 214 residues) complex expressed in Escherichia coli BL21(DE3)
[2] = target: ClpP1P2 (Mycobacterium tuberculosis (strain ATCC 25618 / H37Rv), UniProt P9WPC3+P9WPC5, I71F); test: Inhibition of Mtb ClpP1 I71F mutant expressed in Escherichia coli BL21(DE3)
[3] = tested on: ClpP1P2 (Mycobacterium tuberculosis (strain ATCC 25618 / H37Rv)), P9WPC5+P9WPC3 [I71V]; test: Inhibition of Mtb ClpP1 I71V mutant expressed in Escherichia coli BL21(DE3)
[4] = target: ClpP1P2 (Mycobacterium tuberculosis (strain ATCC 25618 / H37Rv), UniProt P9WPC3+P9WPC5, S72T); test: Inhibition of Mtb ClpP1 S72T mutant expressed in Escherichia coli BL21(DE3)
[5] = tested on: ClpP1P2 (Mycobacterium tuberculosis (strain ATCC 25618 / H37Rv)), P9WPC5+P9WPC3 [M75A]; test: Inhibition of Mtb ClpP1 M75A mutant expressed in Escherichia coli BL21(DE3)
[6] = tested on: ClpP1P2 (Mycobacterium tuberculosis (strain ATCC 25618 / H37Rv)), P9WPC5+P9WPC3 [M75F]; test: Inhibition of Mtb ClpP1 M75F mutant expressed in Escherichia coli BL21(DE3)
[7] = tested on: ClpP1P2 (Mycobacterium tuberculosis (strain ATCC 25618 / H37Rv)), P9WPC5+P9WPC3 [M75L]; test: Inhibition of Mtb ClpP1 M75L mutant expressed in Escherichia coli BL21(DE3)
[8] = tested on: ClpP1P2 (Mycobacterium tuberculosis (strain ATCC 25618 / H37Rv)), P9WPC5+P9WPC3 [M95A]; test: Inhibition of Mtb ClpP1 M95A mutant expressed in Escherichia coli BL21(DE3)
[9] = tested on: ClpP1P2 (Mycobacterium tuberculosis (strain ATCC 25618 / H37Rv)), P9WPC5+P9WPC3 [M95Q]; test: Inhibition of Mtb ClpP1 M95Q mutant expressed in Escherichia coli BL21(DE3)
[10] = target: ClpP1P2 (Mycobacterium tuberculosis (strain ATCC 25618 / H37Rv), UniProt P9WPC3+P9WPC5, M95L); test: Inhibition of Mtb ClpP1 M95L mutant expressed in Escherichia coli BL21(DE3)
[11] = target: ClpP1P2 (Mycobacterium tuberculosis (strain ATCC 25618 / H37Rv), UniProt P9WPC3+P9WPC5, M95W); test: Inhibition of Mtb ClpP1 M95W mutant expressed in Escherichia coli BL21(DE3)
[12] = tested on: ClpP1P2 (Mycobacterium tuberculosis (strain ATCC 25618 / H37Rv)), P9WPC5+P9WPC3 [M95S]; test: Inhibition of Mtb ClpP1 M95S mutant expressed in Escherichia coli BL21(DE3)
[13] = target: ClpP1P2 (Mycobacterium tuberculosis (strain ATCC 25618 / H37Rv), UniProt P9WPC3+P9WPC5, H117N); test: Inhibition of Mtb ClpP1 H117N mutant expressed in Escherichia coli BL21(DE3)
[14] = target: ClpP1P2 (Mycobacterium tuberculosis (strain ATCC 25618 / H37Rv), UniProt P9WPC3+P9WPC5, H117A); test: Inhibition of Mtb ClpP1 H117A mutant expressed in Escherichia coli BL21(DE3)
[15] = tested on: ClpP1P2 (Mycobacterium tuberculosis (strain ATCC 25618 / H37Rv)), P9WPC5+P9WPC3 [R119E]; test: Inhibition of Mtb ClpP1 R119E mutant expressed in Escherichia coli BL21(DE3)
[16] = tested on: ClpP1P2 (Mycobacterium tuberculosis (strain ATCC 25618 / H37Rv)), P9WPC5+P9WPC3 [R119Q]; test: Inhibition of Mtb ClpP1 R119Q mutant expressed in Escherichia coli BL21(DE3)
[17] = target: ClpP1P2 (Mycobacterium tuberculosis (strain ATCC 25618 / H37Rv), UniProt P9WPC3+P9WPC5, R119S); test: Inhibition of Mtb ClpP1 R119S mutant expressed in Escherichia coli BL21(DE3)
[18] = target: ClpP1P2 (Mycobacterium tuberculosis (strain ATCC 25618 / H37Rv), UniProt P9WPC3+P9WPC5, Q142H); test: Inhibition of Mtb ClpP1 Q142H mutant expressed in Escherichia coli BL21(DE3)
[19] = target: ClpP1P2 (Mycobacterium tuberculosis (strain ATCC 25618 / H37Rv), UniProt P9WPC3+P9WPC5, Q142R); test: Inhibition of Mtb ClpP1 Q142R mutant expressed in Escherichia coli BL21(DE3)
[20] = tested on: ClpP1P2 (Mycobacterium tuberculosis (strain ATCC 25618 / H37Rv)), P9WPC5+P9WPC3 [I146M]; test: Inhibition of Mtb ClpP1 I146M mutant expressed in Escherichia coli BL21(DE3)
[21] = tested on: ClpP1P2 (Mycobacterium tuberculosis (strain ATCC 25618 / H37Rv)), P9WPC5+P9WPC3 [I146V]; test: Inhibition of Mtb ClpP1 I146V mutant expressed in Escherichia coli BL21(DE3)
[22] = target: ClpP1P2 (Mycobacterium tuberculosis (strain ATCC 25618 / H37Rv), UniProt P9WPC3+P9WPC5, I146T); test: Inhibition of Mtb ClpP1 I146T mutant expressed in Escherichia coli BL21(DE3)
[23] = target: ClpP1P2 (Mycobacterium tuberculosis (strain ATCC 25618 / H37Rv), UniProt P9WPC3+P9WPC5, I146L); test: Inhibition of Mtb ClpP1 I146L mutant expressed in Escherichia coli BL21(DE3)
[24] = tested on: ClpP1P2 (Mycobacterium tuberculosis (strain ATCC 25618 / H37Rv)), P9WPC5+P9WPC3 [E149L]; test: Inhibition of Mtb ClpP1 E149L mutant expressed in Escherichia coli BL21(DE3)
[25] = target: ClpP1P2 (Mycobacterium tuberculosis (strain ATCC 25618 / H37Rv), UniProt P9WPC3+P9WPC5, E149R); test: Inhibition of Mtb ClpP1 E149R mutant expressed in Escherichia coli BL21(DE3)
[26] = target: ClpP1P2 (Mycobacterium tuberculosis (strain ATCC 25618 / H37Rv), UniProt P9WPC3+P9WPC5, E149K); test: Inhibition of Mtb ClpP1 E149K mutant expressed in Escherichia coli BL21(DE3)
[27] = target: ClpP1P2 (Mycobacterium tuberculosis (strain ATCC 25618 / H37Rv), UniProt P9WPC3+P9WPC5, E149Q); test: Inhibition of Mtb ClpP1 E149Q mutant expressed in Escherichia coli BL21(DE3)
[28] = target: ClpP1P2 (Mycobacterium tuberculosis (strain ATCC 25618 / H37Rv), UniProt P9WPC3+P9WPC5, E149T); test: Inhibition of Mtb ClpP1 E149T mutant expressed in Escherichia coli BL21(DE3)
[29] = target: ClpP1P2 (Mycobacterium tuberculosis (strain ATCC 25618 / H37Rv), UniProt P9WPC3+P9WPC5, W174I); test: Inhibition of Mtb ClpP1 W174I mutant expressed in Escherichia coli BL21(DE3)
[30] = tested on: ClpP1P2 (Mycobacterium tuberculosis (strain ATCC 25618 / H37Rv)), P9WPC5+P9WPC3 [W174F]; test: Inhibition of Mtb ClpP1 W174F mutant expressed in Escherichia coli BL21(DE3)
[31] = target: ClpP1P2 (Mycobacterium tuberculosis (strain ATCC 25618 / H37Rv), UniProt P9WPC3+P9WPC5, W174A); test: Inhibition of Mtb ClpP1 W174A mutant expressed in Escherichia coli BL21(DE3)

In the case of `COc1cc2c(Oc3ccc4[nH]c(C)cc4c3F)ncnc2cc1OCCCN1CCCC1` [CEDIRANIB], the Ratio IC50 [1] is reported as 9.6, the IC50 [2] is reported as 3.4 µM and the inhibition [3] is reported as “inactive”. The IC50 [4] was greater than 54.5 µM, the inhibition [5] was “Active” and the inhibition [6] was “inactive”. For the same molecule, the inhibition [7] was “inactive”, the inhibition [8] was “Active” and the inhibition [9] was “inactive”. The IC50 [10] was 23.7 µM, the IC50 [11] was 7.5 µM and the inhibition [12] was “inactive”. The IC50 [13] was greater than 50 µM, the IC50 [14] was 4.4 µM and the inhibition [15] was “inactive”. For the same molecule, the inhibition [16] was “inactive”, the IC50 [17] was 42.2 µM and the IC50 [18] was 14.4 µM. The IC50 [19] was 9.5 µM, the inhibition [20] was “inactive” and the inhibition [21] was “inactive”. For the same molecule, the IC50 [22] was 5.1 µM, the IC50 [23] was 9.7 µM and the inhibition [24] was “inactive”. For the same molecule, the IC50 [25] was 41.8 µM, the IC50 [26] was greater than 100 µM and the IC50 [27] was 6.3 µM. The IC50 [28] was 7.6 µM, the IC50 [29] was 12.8 µM and the inhibition [30] was “inactive”. The IC50 [31] was 20.2 µM.
